Legend:
[1] = target: human norepinephrine transporter (NET) (Homo sapiens (Human), UniProt P23975); assay: Scintillation Proximity Assay (SPA) for human NET binding ([3H]nisoxetine); conditions: recombinant human NET, CHO membranes
From the text: (§1) Affinity is expressed in terms of inhibition constant (Ki) of the compounds of the invention for DAT, NET and SERT, and it is typically calculated from the IC50 values obtained in competition experiments using Cheng and Prusoff equation (Cheng and Prusoff, Biochem. Pharmacol. 22:3099, 1973). In the context of the present invention pKi values (corresponding to the antilogarithm of Ki) are used instead of Ki; pKi are only estimated to be accurate to about 0.3 log unit.
(§2) Chinese Hamster Ovary (CHO) cells stably expressing either human DAT (hDAT-CHO) or human NET (hNET-CHO) or human SERT (hSERT-CHO) are used for the membrane preparations for radioligand binding assays using Scintillation proximity Assay (SPA) technique. Each cell line is cultured independently in F-12K Nutrient Mixture containing 10% of Fetal Bovine Serum (FBS) supplemented with 450 μg/ml G-418. When cells are at 70-80% of confluence 3 mM Na Butyrate was added to the cell culture medium. After 24 h of incubation, the culture medium was removed and the cells detached with Versene (DAT) or by scraping (NET and SERT). Cell suspension is centrifuged at 41,000 g for 10 minutes at 4° C. The resultant pellets are re-suspended in 15 volumes of Ice-cold buffer (20 mM HEPES, 145 mM NaCl, 5 mM KCl, pH7.3), homogenized using an Ultra Turrax homogeniser and centrifuged as before. The resultant membrane pellets are re-suspended in up to 15 volume of ice-cold buffer, incubated for 20 minutes at 37° C and centrifuged as before at 41,000 g. The final membrane pellets are re-suspended into 5-10 volumes of ice-cold buffer, dispensed into 0.5 ml aliquots and stored at −80° C. until use. Protein concentration for each preparation is determined using Bio-Rad Protein Assay Kit.
(§3) The affinity of the compounds of the invention to the human DAT or NET or SERT transporters is assessed by using the [^3H]WIN-35,428 or [^3H]nisoxetine or [^3H]citalopram binding assays in recombinant human DAT, NET and SERT membranes with the SPA technology. The final assay volume is 50 μL in 384 well plates.
(§4) Briefly, 0.5 μL of test compound in neat DMSO or 0.5 μL of DMSO for total binding (TB) or 0.5 μL of indatraline 1 mM (10 μM final concentration) for non specific binding (NSB) are added to the assay plate. 50 μL of the SPA mixture is added to each well, containing: 30 μg/mL or 10 μg/mL or 25 μg/mL DAT, NET, SERT membranes, respectively; 5 nM [^3H]WIN-35,428 or 5 nM [^3H]nisoxetine or 1 nM [^3H]citalopram, for DAT, NET, SERT assay, respectively; 2.5 mg/mL or 1 mg/mL or 4 mg/mL WGA-PVT SPA beads (PerkinElmer RPNQ0001, for DAT, NET, SERT assay, respectively. All components are added to Assay Buffer (20 mM HEPES pH 7.4, 145 mM NaCl, 5 mM KCl, 0.01% Pluronic F-127). 0.02% BSA was used for DAT binding only. Plates are sealed with Topseal A and centrifuged 1 min, 800 rpm. Plates are loaded into a 1450 Microbeta TriLux (Perkin-Elmer) plate reader and the radioactivity counted after at least 4 hrs or overnight incubation at room temperature. Curve fitting and IC50 estimations are performed using a four parameter model in XLfit (IDBS, Guilford, UK) for Microdoft Excel (Microsoft, Redmond, Wash.).

[2] = target: human dopamine transporter (DAT) (Homo sapiens (Human), UniProt Q01959); assay: Scintillation Proximity Assay (SPA) for human DAT binding ([3H]WIN-35,428); conditions: recombinant human DAT, CHO
human dopamine transporter (DAT), sequence (Q01959 whole entry): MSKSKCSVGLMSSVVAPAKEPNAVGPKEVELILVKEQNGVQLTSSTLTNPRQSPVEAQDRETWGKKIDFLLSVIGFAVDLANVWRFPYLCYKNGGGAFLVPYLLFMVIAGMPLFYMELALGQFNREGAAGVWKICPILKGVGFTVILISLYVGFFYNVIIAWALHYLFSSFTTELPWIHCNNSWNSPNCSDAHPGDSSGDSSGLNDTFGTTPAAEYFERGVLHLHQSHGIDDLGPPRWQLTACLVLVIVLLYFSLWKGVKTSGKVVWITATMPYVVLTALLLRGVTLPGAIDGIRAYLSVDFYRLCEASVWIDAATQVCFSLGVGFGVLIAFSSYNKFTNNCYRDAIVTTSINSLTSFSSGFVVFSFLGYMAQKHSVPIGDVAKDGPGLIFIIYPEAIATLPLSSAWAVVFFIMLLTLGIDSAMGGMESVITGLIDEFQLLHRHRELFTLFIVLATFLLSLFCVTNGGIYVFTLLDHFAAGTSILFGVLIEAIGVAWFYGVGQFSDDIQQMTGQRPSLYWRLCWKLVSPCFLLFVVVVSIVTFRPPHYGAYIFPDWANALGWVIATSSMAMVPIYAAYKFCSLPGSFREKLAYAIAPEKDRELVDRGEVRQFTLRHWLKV
From the text: as §1, §2, §3, §4
The potency of the compounds of the invention in blocking the DAT function is measured using an uptake assay in a recombinant CHO cell line expressing human DAT (hDAT-CHO). Potency is measured in terms of pIC50 by testing the compounds of invention for the inhibition of [^3H]-dopamine uptake in DAT-CHO cells using a SPA technology in 384 well format.
Briefly, on the days of the experiment hDAT-CHO cells are detached using Versene and added (75,000 cells/mL) to the SPA Mixture, which contains the following components in Assay Buffer (20 mM HEPES, 145 mM NaCl, 5 mM KCl, 2 mM CaCl2, 1 mM MgCl2 and 1 g/L glucose, pH 7.3): 0.02% w/v of Pluronic F127, 2 mg/mL SPA Imaging beads (RPNQ0260, PerkinElmer), 10 μM pargyline and 80 nM of [^3H]-dopamine. […]

[3] = target: human serotonin transporter (SERT) (Homo sapiens (Human), UniProt P31645); assay: Scintillation Proximity Assay (SPA) for human SERT binding ([3H]citalopram); conditions: recombinant human SERT, CHO membranes
human serotonin transporter (SERT), sequence (P31645 whole entry): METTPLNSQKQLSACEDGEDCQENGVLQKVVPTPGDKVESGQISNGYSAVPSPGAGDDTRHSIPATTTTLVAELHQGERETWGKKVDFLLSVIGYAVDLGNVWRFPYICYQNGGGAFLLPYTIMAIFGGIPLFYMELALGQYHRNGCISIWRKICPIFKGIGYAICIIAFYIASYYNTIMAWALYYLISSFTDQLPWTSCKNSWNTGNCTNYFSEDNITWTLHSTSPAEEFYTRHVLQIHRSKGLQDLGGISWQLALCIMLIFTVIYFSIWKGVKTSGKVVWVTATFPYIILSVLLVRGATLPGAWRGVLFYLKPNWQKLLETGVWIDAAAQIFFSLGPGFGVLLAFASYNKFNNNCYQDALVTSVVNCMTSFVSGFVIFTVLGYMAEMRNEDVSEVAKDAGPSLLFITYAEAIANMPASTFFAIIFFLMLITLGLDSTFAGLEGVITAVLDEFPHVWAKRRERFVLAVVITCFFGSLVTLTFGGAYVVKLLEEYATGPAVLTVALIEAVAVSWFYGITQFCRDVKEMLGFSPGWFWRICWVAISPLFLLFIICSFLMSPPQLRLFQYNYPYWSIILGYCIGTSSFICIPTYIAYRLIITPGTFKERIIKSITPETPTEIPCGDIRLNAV
From the text: as §1, §2, §3, §4

[4] = target: human ERG potassium channel (hERG) (Homo sapiens (Human), UniProt Q12809); assay: hERG channel tail current recording using Rapid ICE automated patch-clamp; format: cell-based; conditions: HEK293 cells stably transfected with hERG
human ERG potassium channel (hERG), sequence (Q12809 whole entry): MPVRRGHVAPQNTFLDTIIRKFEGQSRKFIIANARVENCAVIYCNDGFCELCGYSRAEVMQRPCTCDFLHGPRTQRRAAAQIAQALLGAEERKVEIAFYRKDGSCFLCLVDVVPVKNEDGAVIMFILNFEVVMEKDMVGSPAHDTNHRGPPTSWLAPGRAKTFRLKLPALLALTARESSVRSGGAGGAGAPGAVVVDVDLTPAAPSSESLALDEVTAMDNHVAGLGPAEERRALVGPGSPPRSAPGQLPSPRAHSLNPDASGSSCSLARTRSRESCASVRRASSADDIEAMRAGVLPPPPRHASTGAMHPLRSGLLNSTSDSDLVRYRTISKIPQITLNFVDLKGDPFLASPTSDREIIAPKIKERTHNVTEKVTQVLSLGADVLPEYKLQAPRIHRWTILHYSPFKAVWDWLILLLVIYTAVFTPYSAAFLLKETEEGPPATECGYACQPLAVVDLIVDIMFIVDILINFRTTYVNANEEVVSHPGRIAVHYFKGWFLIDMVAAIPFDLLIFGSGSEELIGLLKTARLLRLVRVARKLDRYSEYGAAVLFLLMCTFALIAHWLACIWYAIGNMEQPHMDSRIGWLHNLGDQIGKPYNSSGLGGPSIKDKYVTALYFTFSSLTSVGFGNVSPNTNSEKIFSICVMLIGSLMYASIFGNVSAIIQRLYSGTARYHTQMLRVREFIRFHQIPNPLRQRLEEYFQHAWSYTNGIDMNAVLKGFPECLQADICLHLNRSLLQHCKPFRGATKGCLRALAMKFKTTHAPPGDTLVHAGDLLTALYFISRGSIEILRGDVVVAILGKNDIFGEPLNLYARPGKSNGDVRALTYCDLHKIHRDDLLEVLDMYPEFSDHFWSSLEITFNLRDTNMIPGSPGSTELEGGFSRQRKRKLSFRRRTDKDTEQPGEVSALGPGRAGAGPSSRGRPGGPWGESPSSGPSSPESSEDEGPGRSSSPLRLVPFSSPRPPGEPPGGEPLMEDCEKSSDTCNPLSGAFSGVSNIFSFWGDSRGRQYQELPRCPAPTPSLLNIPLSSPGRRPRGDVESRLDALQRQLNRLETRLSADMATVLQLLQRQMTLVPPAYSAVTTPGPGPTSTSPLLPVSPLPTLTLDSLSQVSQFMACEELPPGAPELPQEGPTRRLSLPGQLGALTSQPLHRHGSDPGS
Description: The potency of the compounds of the invention in inhibiting human ERG potassium channel (hERG) tail current is assessed in a recombinant HEK293 cell line stably transfected with hERG cDNA using Rapid ICE™ (Rapid Ion Channel Electrophysiology) assay. Rapid ICE™ is an automated patch-clamp assay utilizing the PatchXpress 7000A system (Molecular Devices Corporation) or the QPatch HTX system (Sophion Bioscience A/S).
Briefly cells are cultivated for 24 to 72 hours before recordings in minimum essential medium supplemented with 10% FBS, 1% non-essential amino acids, 1% sodium pyruvate, 2 mM L-glutamine. The day of the experiment cells are detached with TrypLE and prepared to be loaded on the instrument. For PatchXpress cells are finally resuspended in 150 μl of Extracellular Buffer whereas for QPatch cells are resuspended in 7 ml Serum-Free Media containing 25 mM Hepes and Soybean trypsin inhibitor and immediately placed in the cell storage tank of the machine. The composition of the Extracellular Buffer is (mM): NaCl 137; KCl 4; CaCl2 1.8; MgCl2 1.0; D-glucose 10; N 2 hydroxyethylpiperazine-N′-2-ethanesulfonic acid (HEPES) 10; pH 7.4 with 1 M NaOH. The composition of the pipette solution is (mM): KCl 130; MgCl2 1.0; Ethylene glycol-bis(β-aminoethyl ether)-N,N,N′,N′-tetraacetic acid (EGTA) 5; MgATP 5; HEPES 10; pH 7.2 with 1 M KOH. The voltage protocol includes the following steps: step from −80 mV to −50 mV for 200 ms, +20 mV for 4.8 s, step to −50 mV for 5 s then step to the holding potential of −80 mV. Compounds of the invention are dissolved in DMSO and diluted in Extracellular Buffer to achieve final test concentrations (0.1, 1 and 10 μM) in 0.1% DMSO. The voltage protocol is run and recorded continuously during the experiment. The vehicle, corresponding to 0.1% DMSO in Extracellular Buffer, is then applied for 3 min followed by the test substance in triplicate. The standard combined exposure time is 5 min. The average of tail current amplitude values recorded from 4 sequential voltage pulses is used to calculate for each cell the effect of the test substance by calculating the residual current (% control) compared with vehicle pre-treatment. Data are reported as % inhibition for each concentration tested and IC50 values are estimated using DataXpress or QPatch software. At least two cells are tested, more if results diverge.

human norepinephrine transporter (NET), sequence (P23975 whole entry): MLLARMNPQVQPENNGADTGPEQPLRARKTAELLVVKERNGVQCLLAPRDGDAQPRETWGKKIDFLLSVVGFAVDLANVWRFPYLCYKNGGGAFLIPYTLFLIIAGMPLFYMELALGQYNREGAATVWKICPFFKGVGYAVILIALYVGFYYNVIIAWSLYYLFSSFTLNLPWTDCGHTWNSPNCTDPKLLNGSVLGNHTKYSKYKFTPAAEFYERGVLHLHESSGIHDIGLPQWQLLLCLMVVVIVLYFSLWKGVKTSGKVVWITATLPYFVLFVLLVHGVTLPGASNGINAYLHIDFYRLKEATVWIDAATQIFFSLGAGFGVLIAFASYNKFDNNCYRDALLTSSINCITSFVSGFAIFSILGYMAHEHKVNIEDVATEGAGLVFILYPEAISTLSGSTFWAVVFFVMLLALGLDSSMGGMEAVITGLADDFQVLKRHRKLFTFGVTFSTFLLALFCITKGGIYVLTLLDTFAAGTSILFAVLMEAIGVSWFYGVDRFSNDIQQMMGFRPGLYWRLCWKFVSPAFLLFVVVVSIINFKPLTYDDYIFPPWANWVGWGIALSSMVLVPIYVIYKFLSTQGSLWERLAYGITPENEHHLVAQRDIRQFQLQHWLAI

| Compound | pIC50 NET [1] | pIC50 DAT [2] | IC50 [3] | pIC50 hERG [4] | pIC50 SERT [3] |
| --- | --- | --- | --- | --- | --- |
| OC1(CNC2CC2)CCN(c2nc(Oc3cccc(F)c3)cc(C(F)(F)F)n2)C1 (stereo not shown) [Example 30, 3-[(cyclopropylamino)methyl]-1-[4-(3-fluorophenoxy)-6-(trifluoromethyl)pyrimidin-2-yl]pyrrolidin-3-ol] | 6.78 | 8.72 | 34.7 µM |  |  |
| O=C(NCC1(O)CCN(c2nc(Oc3cccc(F)c3)cc(C(F)(F)F)n2)CC1)c1cn[nH]c1 [Example 27, N-({1-[4-(3-fluorophenoxy)-6-(trifluoromethyl)pyrimidin-2-yl]-4-hydroxypiperidin-4-yl}methyl)-1H-pyrazole-4-carboxamide] | 5.65 | 7.72 | 34.7 µM | 5.3 |  |
| O=C(NCC1(O)CCN(c2nc(Oc3cccc(F)c3)cc(C(F)(F)F)n2)C1)C1CNC1 (stereo not shown) [Example 35, N-({1-[4-(3-fluorophenoxy)-6-(trifluoromethyl)pyrimidin-2-yl]-3-hydroxypyrrolidin-3-yl}methyl)azetidine-3-carboxamide] | 6.56 | 8.25 | 33.1 µM |  |  |
| CC(C)OCC(=O)NCC1(O)CCN(c2nc(Oc3cccc(F)c3)cc(C(F)(F)F)n2)CC1 [Example 23, N-({1-[4-(3-fluorophenoxy)-6-(trifluoromethyl)pyrimidin-2-yl]-4-hydroxypiperidin-4-yl}methyl)-2-(propan-2-yloxy)acetamide] | 5.55 | 7.75 | > 100 µM |  |  |
| NCC1(O)CCN(c2cc(F)cc(Oc3cccc(F)c3)c2)CC1 [Example 14, 4-(aminomethyl)-1-[3-fluoro-5-(3-fluorophenoxy)phenyl]piperidin-4-ol] | 6.93 | 8.82 | 0.603 µM |  |  |
| CC(C)C(=O)NCC1(O)CCN(c2nc(Oc3cccc(F)c3)cc(C(F)(F)F)n2)C1 (stereo not shown) [Example 34, N-({1-[4-(3-fluorophenoxy)-6-(trifluoromethyl)pyrimidin-2-yl]-3-hydroxypyrrolidin-3-yl}methyl)-2-methylpropanamide] | 4.72 | 6.50 | > 100 µM |  |  |
| NCC1(O)CCN(c2cccc(Oc3ccccc3)c2F)CC1 [Example 16, 4-(aminomethyl)-1-(2-fluoro-3-phenoxyphenyl)piperidin-4-ol] | 6.01 | 7.81 | 1.45 µM |  |  |
| O=C(CC1CC1)NCC1(O)CCN(c2nc(Oc3cccc(F)c3)cc(C(F)(F)F)n2)CC1 [Example 22, 2-cyclopropyl-N-({1-[4-(3-fluorophenoxy)-6-(trifluoromethyl)pyrimidin-2-yl]-4-hydroxypiperidin-4-yl}methyl)acetamide] | 5.76 | 7.58 | > 100 µM |  |  |
| Cl.NCC1(O)CCN(c2nc(Oc3cccc(F)c3)cc(C(F)(F)F)n2)CC1 [Example 12, 4-(aminomethyl)-1-[4-(3-fluorophenoxy)-6-(trifluoromethyl)pyrimidin-2-yl]piperidin-4-ol hydrochloride] | 6.84 | 8.56 | 8.71 µM |  |  |
| NCC1(O)CCN(c2cccc(Oc3cccc(F)c3)c2F)CC1 [Example 17, 4-(aminomethyl)-1-[2-fluoro-3-(3-fluorophenoxy)phenyl]piperidin-4-ol] | 6.49 | 8.17 | 2.09 µM |  |  |
| (3R or 3S)-3-[(cyclopropylamino)methyl]-1-[4-(3-fluorophenoxy)-6-(trifluoromethyl)pyrimidin-2-yl]pyrrolidin-3-ol [Example 32] | 6.63 | 8.47 |  |  | 4.36 |
| CC(C)(C)NCC1(O)CCN(c2nc(Oc3cccc(F)c3)cc(C(F)(F)F)n2)CC1 [Example 9, 4-[(tert-butylamino)methyl]-1-[4-(3-fluorophenoxy)-6-(trifluoromethyl)pyrimidin-2-yl]piperidin-4-ol] | 6.02 | 7.91 | 11.2 µM |  |  |
| CC(=O)NCC1(O)CCN(c2nc(Oc3cccc(F)c3)cc(C(F)(F)F)n2)CC1 [Example 24, N-({1-[4-(3-fluorophenoxy)-6-(trifluoromethyl)pyrimidin-2-yl]-4-hydroxypiperidin-4-yl}methyl)acetamide] | 5.04 | 7.42 | > 100 µM |  |  |
| O=C1CCCN1CC1(O)CCN(c2nc(Oc3cccc(F)c3)cc(C(F)(F)F)n2)CC1 [Example 10, 1-({1-[4-(3-fluorophenoxy)-6-(trifluoromethyl)pyrimidin-2-yl]-4-hydroxypiperidin-4-yl}methyl)pyrrolidin-2-one] | 5.33 | 7.18 | > 100 µM |  |  |
| NC1(CO)CCN(c2nc(Oc3cccc(F)c3)cc(C(F)(F)F)n2)CC1 [Example 20, {4-amino-1-[4-(3-fluorophenoxy)-6-(trifluoromethyl)pyrimidin-2-yl]piperidin-4-yl}methanol] | 6.50 | 8.39 | 5.13 µM |  |  |
| NCC1(O)CCN(c2cc(F)cc(Oc3cccc(F)c3)c2F)CC1 [Example 15, 4-(aminomethyl)-1-[2,5-difluoro-3-(3-fluorophenoxy)phenyl]piperidin-4-ol] | 7.24 | 9.04 | 0.661 µM |  |  |
